Entries after “also recorded” stand apart in the source; their conditions may differ. Where a SMILES comes first, the peptide text is derived from it. Where no end group is shown, it is not given here. The star is where a group is joined. Octanoyl = CCCCCCCC(=O)*
Assays:
SNpc DA neurons [1] = experiment: mEPSC recordings in GHSR1a knockout mice and their WT littermates; format: cell-based; conditions: 1 μM, in presence of TTX and bicuculline
SNpc DA neurons [2] = experiment: Patch clamp (whole-cell current clamp) recordings of action potentials in brain slices, bath application; format: cell-based, mice; conditions: 1 μM
Protocol: Brain slices preparation: Brain slices (300 µm) containing the SN, will be cut on a vibratome from 4-6 week old males (n=10 per group). Briefly, animals will be anesthetized with Nembutal (80 mg/kg) and then decapitated. The brains will be rapidly removed and immersed in cold […] oxygenated bath solution (containing (mM): NaCl 150, KCl 2.5, CaCl2 2, MgCl2 2 Hepes 10, and glucose […] with NaOH). After being trimmed to contain only the SN, slices will be transferred to a recording chamber where they are constantly perfused with bath solution at 2 ml/min. DA neurons in the SN are identified by presence of a large Ih current (>100 pA) evoked by hyperpolarizing voltage steps from −50 to −120 mV for 2 s (22). This approach identifies dopaminergic cells with >90% accuracy. In brain slices, whole-cell current clamp will be used to observe spontaneous action potentials. Slices will be maintained at 330 C and perfused continuously with ASCF (bubbled with 5% CO2 and 95% O2) containing (in mM): NaCl, 124; KCl, 3; CaCl2, 2; MgCl2, 2; NaH2PO4, 1.23; NaHCO3, 26; glucose, 10; pH 7.4 with NaOH. Ghrelin Splice Variant will be applied to the recording chamber via bath application.The pipette solution containes (mM): Gluconic Acid 140, CaCl2, MgCl2 2, EGTA 1, HEPES 10, Mg-ATP 4, and Na2-GTP 0.5, pH 7.3 with KOH. To further explore the mechanism of Ghrelin Splice Variant-mediated effect on action potentials in DA neurons, we will analyze the effect of Ghrelin Splice Variant on action potential frequency either in the presence of ionotropic glutamate receptor antagonists CNQX (10 µM) and APS (50 µM) in all solutions, or in the presence of bicuculine (30 µM; to block diminish GABA effects) in all solutions. Analysis: All data will be sampled at 3-10 kHz and […] at 1-3 kHz with an Apple Macintosh computer using Axograph 4.9 (Axon Instruments). Electrophysiological data will be analyzed with Axograph 4.9 (Axon Instruments) and plotted with Igor Pro software (WaveMetrics, Lake Oswego, Oreg., USA). To complement, the electron microscopic measurements of synapses, we will also analyze mEPSC and mIPSC of SN DA neurons. Mice (C57BL/J6; n=10) between the ages of 4-6 weeks of age will be injected with Ghrelin Splice Variant (30 μg in 0.3 ml) or vehicle ip at 09:00 hrs. Two hours later, animals will be sacrificed under neinbutal anesthesia and their brains collected as described above. For the recording of mEPSCs and IPSCs, SN DA cells will be patched with pipettes with a tip resistance of 4-6 MΩ and partially compensated by the amplifier. The pipette will be filled with a solution containing the following (mM): KMeSO, 145 (mEPSC) or KCL, 145 (mIPSC); MgCl2, 2; HEPES, 10; Mg-ATP, 2.; Nat-GTP, 0.3; and KOH to adjust pH to 7.3. mEPSC recordings will be achieved under the prescence of TTX and bicucullin, whereas mIPSC will be monitored under the presence of TTX, AP5 and CNQX. The frequency and amplitude of mEPSC and IPSC will be recorded as described previously. Differences in the frequency of mEPSCs and mIPSCs of DA cells from Ghrelin Splice Variant and saline treated animals will be compared using unpaired t-tests with the critical level set at α=0.05). […] N=number of cells recorded.

[3] = test system: C57Bl/6 mice primary cell culture; experiment: Trypan blue cell viability assay, protection against H2O2-induced cell death; format: cell-based; conditions: for protective action against the damages produced by H2O2 in terms of cell viability: 50 μM H2O2 plus 1 μM peptide, compared to negative control (H2O2)
Protocol: The protective effects of ghrelin splice variant against induced cell death, cell viability, of C57Bl/6 mice primary cell culture, was analysed by trypan blue assay, an indirect method based on the dye exclusion of live cells with intact cell membrane.
Cells were treated with 50 μM H2O2 to induce cell damages and death. The neuroprotective effect of ghrelin splice variant was tested by treating the cells with either H2O2 plus 1 μM ghrelin splice variant, H2O2 plus 1 μM ghrelin or H2O2 plus both peptides. Controls samples were untreated cells.

MPTP-mice = experiment: MPTP mouse model of Parkinson's disease; format: in vivo; conditions: 10 nmol once-a-day, day -7 to day 10 after MPTP
Protocol: In the MPTP model, the bilateral dopaminergic neuronal death of the substantia nigra and dopamine depletion of the striatum is created by i.p. injection of MPTP. Experimental groups:
• Group 1: 10 Sham-mice treated with vehicle (10 ml/kg) once-a-day starting day-7 and continuing until the end of the study day 10 • Group 2: 10 MPTP-mice treated with vehicle (10 ml/kg) once-a-day starting day-7 and continuing until the end of the study day 10 • Group 3: 10 MPTP-mice treated with Ghrelin SplicVariant (10 nmol) once-a-day starting day-7 and continuing until the end of the study day 10 Ghrelin Splice Variant or vehicle was administered once-a-day immediately before the dark phase, and […] were removed overnight starting seven days prior to MPTP challenge and continued until end-point day 10 after MPTP. Striatal levels of dopamine (DA), […] (DOPAC) and homovanillic acid (HVA) are evaluated 10 days after the injection of MPTP with HPLC. In addition, the selective damage to dopaminergic neurons in the SNc is evaluated with tyrosine hydroxylase (TH) immunoreactivity. Food intake and body weight were monitored daily in all mice administered Ghrelin Splice Variant.

growth hormone = experiment: GH release after subcutaneous bolus injection (growth hormone ELISA); format: in vivo, mice; conditions: 20 μg subcutaneous bolus; 10 minutes after administration
Protocol: Acylated ghrelin splice variants (20 μg) or the Vehicle (1.6% mannitol) were administered by a subcutaneous bolus injection (Corresponding to 0.3 μmol/kg) to 5 mice each. Blood was sampled 10 and 20 min after injection. Serum samples were stored at −70° C. and analyzed by the RAT/MOUSE GROWTH HORMONE ELISA KIT 96-Well Plate (Cat. EZRMGH-45K) (Millipore Corporation, Billerica, Mass., USA). Results: The serum […] growth hormone concentration 10 minutes after subcutaneous administration of acylated ghrelin splice variant or the Vehicle was 2-14-fold higher in the ghrelin splice variant group in comparison to the vehicle group.

SN DA neurons = experiment: mEPSC and mIPSC recordings of SN DA neurons after treatment of WT mice; format: in vivo; conditions: compared with saline control, n=6 cells
Protocol: Brain slices preparation: Brain slices (300 µm) containing the SN, will be cut on a vibratome from 4-6 week old males (n=10 per group). Briefly, animals will be anesthetized with Nembutal (80 mg/kg) and then decapitated. The brains will be rapidly removed and immersed in cold […] oxygenated bath solution (containing (mM): NaCl 150, KCl 2.5, CaCl2 2, MgCl2 2 Hepes 10, and glucose […] with NaOH). After being trimmed to contain only the SN, slices will be transferred to a recording chamber where they are constantly perfused with bath solution at 2 ml/min. DA neurons in the SN are identified by presence of a large Ih current (>100 pA) evoked by hyperpolarizing voltage steps from −50 to −120 mV for 2 s (22). This approach identifies dopaminergic cells with >90% accuracy. […] Electrophysiological data will be analyzed with Axograph 4.9 (Axon Instruments) and plotted with Igor Pro software (WaveMetrics, Lake Oswego, Oreg., USA). […] The pipette will be filled with a solution containing the following (mM): KMeSO, 145 (mEPSC) or KCL, 145 (mIPSC); MgCl2, 2; HEPES, 10; Mg-ATP, 2.; Nat-GTP, 0.3; and KOH to adjust pH to 7.3. mEPSC recordings will be achieved under the prescence of TTX and bicucullin, whereas mIPSC will be monitored under the presence of TTX, AP5 and CNQX. The frequency and amplitude of mEPSC and IPSC will be recorded as described previously. […] N=number of cells recorded.

[4] = Pharmacokinetics after subcutaneous administration, plasma LC/MS/MS; format: in vivo, Sprague-Dawley rats; conditions: Sprague-Dawley, rat; for half-life: across dose groups; for AUC / AUC(0-inf): SC; for AUC: high dose (10 mg/kg)
Protocol: Subcutaneous administration of ghrelin splice variants was performed at three dose levels of 0.5, 2.5 and 10 mg/kg corresponding to concentrations of 0.1, 0.5 and 2 mg/ml, respectively, and at a constant volume dosage of 5 ml/kg. Intravenous injection was performed at one dose level of 0.5 mg/kg corresponding to a concentration of 0.1 mg/ml and a constant volume dosage of 5 ml/kg as well. The study comprised 9 male and 9 female Sprague-Dawley™ (SD™) rats per dose level and route of administration.
Bleeding sampling design was confined to 9 bleeding time points for each dose level: pre-dosing, 5, 15, 30, 60 and 90 min, 3, 5 and 24 hrs, post-dosing. Each group was divided into 3 sub-groups, each being assigned 3 specific bleeding time points, in order to receive 3 individual samples/time point/group (total of 27 individual samples/group). […] Whole blood samples were kept on ice from the time of blood collection until the time of centrifugation. The obtained plasma samples were flash frozen in liquid nitrogen and kept on dry ice until removal to −70° C.
Concentrations of the Test Item in plasma were determined by LC/MS/MS (liquid chromatography/mass spectrometry/mass spectrometry). Pharmacokinetic analysis of Ghrelin Splice Variant was based on mean plasma concentration time profiles for each dose group as obtained by Non-compartmental Pharmacokinetic analysis, generated by the use of the computer software: “PK Solutions 2.0” (Summit Research Services, Colo., USA).

[5] = cited from earlier work
[6] = listed as Ghrelin splice variant

In the case of CCCCCCCC(=O)OC[C@H](NC(=O)[C@H](CO)NC(=O)CN)C(=O)N[C@@H](Cc1ccccc1)C(=O)N[C@@H](CC(C)C)C(=O)N[C@@H](CO)C(=O)N1CCC[C@H]1C(=O)N[C@@H](CCC(=O)O)C(=O)N[C@@H](Cc1c[nH]cn1)C(=O)N[C@@H](CCC(N)=O)C(=O)N[C@@H](CCCNC(=N)N)C(=O)N[C@H](C(=O)N[C@@H](CCC(N)=O)C(=O)N[C@H](C(=O)N[C@@H](CCCNC(=N)N)C(=O)N1CCC[C@H]1C(=O)N1CCC[C@H]1C(=O)N[C@@H](Cc1c[nH]cn1)C(=O)N[C@@H](CCCCN)C(=O)N[C@@H](C)C(=O)N1CCC[C@H]1C(=O)N[C@@H](Cc1c[nH]cn1)C(=O)O)C(C)C)C(C)C [Ghrelin Splice Variant] (H-GSS(Octanoyl)FLSPEHQRVQVRPPHKAPH-OH), the mEPSC frequency (SNpc DA neurons [1]; GHSR1a knockout mice, n=9 cells) is reported as 27.3+/−2.8 per min, the mEPSC frequency (SNpc DA neurons [1]; WT animals, n=31 cells) is reported as 98.1+/−24.7 per min and the action potential firing (SNpc DA neurons [2]) is reported as “increment in AP firing”. For the same compound, the depolarization (SNpc DA neurons [2]) was “about 10 mV”, the “duration of effect after washout” value (SNpc DA neurons [2]) was 20 min and the action potential firing (SNpc DA neurons [2]; [6]) was “increment in action potential firing”. The “duration of effect after washout” value (SNpc DA neurons [2]; [6]) was “at least 20 minutes”, the “protective action against the damages produced by H2O2 in terms of cell viability” value (shortened to “protective action”) [3, 6] was “effective protective action” and the “protective action” value ([3]; listed as ghrelin splice variant) was “statistically significant effective protective action; also recorded: greater than ghrelin treatment”. The “MPTP-induced nigrostriatal DA damage (loss of DA neurons)” value (MPTP-mice) was “attenuates MPTP-induced nigrostriatal PA damage”, the “cumulative weight gain / recovery after MPTP treatment” value (MPTP-mice) was “managed to recover after the MPTP treatment” and the “serum and brain growth hormone concentration in comparison to the vehicle group” value (growth hormone) was 2-14 fold. The “frequency of mEPSCs” value (SN DA neurons) was 67.2 ± 3.1, the “frequency of mIPSCs” value (SN DA neurons) was 60.5 ± 8.9 and the half-life ([4]; subcutaneous, female rats) was 10.7 to 28.9 min. For the same compound, the half-life ([4]; subcutaneous, male rats) was 17.4 to 26.4 min, the Tmax ([4]; both sexes, subcutaneous, post-dosing, all dose groups) was 5 min and the AUC ([4]; female, females) was 818 ng·h/mL. The AUC(0-inf) ([4]; female, low dose (0.5 mg/kg), females) was 86.7 ng·h/mL, the AUC(0-inf) ([4]; female, mid dose (2.5 mg/kg), females) was 347 ng·h/mL and the AUC ([4]; male, males) was 1320 ng·h/mL. It also gave an AUC(0-inf) ([4]; male, low dose (0.5 mg/kg), males) of 102 ng·h/mL and an AUC(0-inf) ([4]; male, mid dose (2.5 mg/kg), males) of 313 ng·h/mL.

Work on OO [H2O2, reference compound] yielded a cell survival ([3]; 50 μM H2O2 alone) of 50%.

In the case of “Ghrelin: 28 amino acid peptide bearing an n-octanoyl side chain on the third serine (GSS(Octanoyl)FLSPEHQRVQQRKESKKPPAKLQPR; UniProt Q9UBU3 24-51, looked up) [reference compound]”, the “increase of food intake” value ([5]; infusion for 90 minutes, cancer cachexia patients) is listed as 30%, the “increase of energy intake” value ([5]; subcutaneous injection of 3.6 nmol/kg prior to a meal) is listed as 27% and the “protective action” value [3] is listed as “statistically significant”. For the same compound, the “protective action” value ([3]; listed as ghrelin) was “statistically significant effective protective action”.

Reference: patent publication US10526383B2, “Ghrelin splice variant for treating neuronal damage, neurodegenerative disease, parkinsons disease, alzheimers disease, and/or depression” (priority 2013, dated 2020)
